From article PMC11452043, “In vitro 5-LOX inhibitory and antioxidant potential of isoxazole derivatives” (PLOS ONE, 2024)

Tests used:
[1] = DPPH free radical scavenging (antioxidant) assay; conditions: for DPPH percent inhibition: mean ± SEM, n = 3
Experimental: The previously outlined methodology will be employed to evaluate the compounds’ antioxidant ability, as determined by the processes of the 1,1-diphenyl, 2-picrylhydrazyl (DPPH) free radical. The experimental specimens will be subjected to dilution using different quantities, spanning from 62.5 to 1000 μg/ml, and afterwards introduced into a methanolic solution of DPPH at a concentration of 0.004%. At 517 nm, the absorbance will be determined by a UV spectrophotometer following a 30-minute duration. The scavenging capability of ascorbic acid will be quantified by employing the equation: DPPH=[(A0−A1)/A0]100 Whereas: […]
Every test was carried out three times, and the median inhibitory dosages (IC50) were determined. The drawing of inhibition graphs was performed by GraphPad Prism software-GraphPAD, San Diego, California, USA.
The IC50 values were determined from dosage response curve using Microsoft Excel program.

paw edema = conditions: dose dependent manner; cited from earlier work
5-LOX = conditions: cited from earlier work
COX = conditions: cited from earlier work
tumor growth = conditions: in vivo and in vitro; cited from earlier work
[2] = biological target: T1, 5-lipoxygenase (5-LOX) enzyme (Homo sapiens, UniProt P09917); experiment: 5-LOX inhibitory assay; type: biochemical; conditions: for inhibition at 62.5 µg/mL: 62.5 μg/ml; for inhibition at 62.5 µg/mL / inhibition at 125 µg/mL / inhibition at 250 µg/mL / inhibition at 500 µg/mL / inhibition at 1000 µg/mL: mean ± SEM, n = 3, read-out: 5-LOX percent inhibition; for inhibition at 125 µg/mL: 125 μg/ml; for inhibition at 250 µg/mL: 250 μg/ml; for inhibition at 500 µg/mL: 500 μg/ml; for inhibition at 1000 µg/mL: 1000 μg/ml
T1 sequence (P09917 1-674): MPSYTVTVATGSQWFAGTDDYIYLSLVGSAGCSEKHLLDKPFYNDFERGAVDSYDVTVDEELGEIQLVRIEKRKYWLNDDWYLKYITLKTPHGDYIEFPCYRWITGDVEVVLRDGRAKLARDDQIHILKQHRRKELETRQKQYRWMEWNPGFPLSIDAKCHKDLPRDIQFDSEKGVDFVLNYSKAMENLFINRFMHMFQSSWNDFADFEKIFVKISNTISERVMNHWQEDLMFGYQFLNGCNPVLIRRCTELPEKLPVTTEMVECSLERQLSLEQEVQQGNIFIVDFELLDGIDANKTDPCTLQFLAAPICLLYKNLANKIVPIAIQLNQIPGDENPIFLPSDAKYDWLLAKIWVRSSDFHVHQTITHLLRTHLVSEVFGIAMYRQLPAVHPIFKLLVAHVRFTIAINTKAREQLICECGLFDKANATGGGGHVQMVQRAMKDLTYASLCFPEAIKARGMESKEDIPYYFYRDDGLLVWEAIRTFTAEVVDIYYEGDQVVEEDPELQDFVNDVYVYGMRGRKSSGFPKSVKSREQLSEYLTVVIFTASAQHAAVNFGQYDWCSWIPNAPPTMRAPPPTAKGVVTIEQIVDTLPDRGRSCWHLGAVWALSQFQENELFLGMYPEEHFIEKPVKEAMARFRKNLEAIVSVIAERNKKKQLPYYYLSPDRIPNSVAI
Experimental: The synthesized Isoxazole derivatives will be investigated for 5-LOX Inhibition studies as per established protocols of Wisastra and his co researchers. In this experiment, residual enzyme potential will be utilized to measure the degree of enzyme inhibition after 10 to 15 minutes of inhibitor’s incubation at 25°C. The reaction involving the conversion of linoleic acid, a substrate of lipoxygenase, into hydroperoxy-octadecadienoate (HPOD) will be employed as a means of quantifying the said reaction. The variation in the rate of absorption will be determined by employing a UV-visible spectrophotometer set at a wavelength of 234 nm. A 50 mM Tris buffer containing 2 mM EDTA and 2 mM CaCl2 was used as the assay buffer in this experiment. The buffer has a pH of 7.5. Following this, a buffer solution was employed to dilute the 5-lipoxygenase (5-LOX) enzyme at a concentration of 20,000 units per millilitre (U/mL) at a ratio of 1:4000. The 100 mM inhibitor was diluted using the test buffer following the administration of dimethyl sulfoxide (DMSO) for its dissolution. The content of linoleic acid was reduced to 20 mg/ml through dilution using ethyl alcohol. To accomplish this, 1 mL of the enzyme solution (1: 4000) will be combined with 100 μL of 2 mM adenosine triphosphate (ATP), 100 μL of the inhibitor (1 mM), and […] of Tris buffer while incubated for 10 min. Following approximately 10 seconds of the substrate and the enzyme mixing together, 10 μL of a 20 mM substrate solution will be added to the mixture. At that point, the changing rate of the substrate will be determined. The response rate will be utilized as a positive control without blockers. In this experiment, montelukast will be utilized as the reference medicine.

O=C1O[C@H]([C@@H](O)CO)C(O)=C1O [Ascorbic acid, reference compound]
IC50 [1]: 17.9 µM
DPPH percent inhibition ([1]; 62.5 μg/mL): 77.72±0.59%
DPPH percent inhibition ([1]; 125 μg/mL): 79.37±0.71%
DPPH percent inhibition ([1]; 250 μg/mL): 82.25±0.72%
DPPH percent inhibition ([1]; 500 μg/mL): 87.65±0.42%
DPPH percent inhibition ([1]; 1000 μg/mL): 92.51±0.69%

CCO/C(C)=N/c1onc(C)c1C(=O)NCc1ccc(OC)cc1OC [Compound 64]
inhibition of paw edema (paw edema): strongly inhibited

COc1cc(-c2cc(-c3sccc3C)no2)cc(OC)c1OC [Compound 65]
activity of 5-LOX (5-LOX): considerably reduce
activity of COX (COX): considerably reduce
inhibition on tumor growth (tumor growth): excellent inhibition

COc1ccc(C2NC(=O)NC(C(F)(F)F)=C2c2cc(-c3ccco3)on2)cc1 (stereo not shown) [Compound C6]
IC50 [2]: 3.67 µM
inhibition at 62.5 µg/mL [2]: 81.9 ± 0.96%
inhibition at 125 µg/mL [2]: 85.08 ± 0.47%
inhibition at 250 µg/mL [2]: 88.8 ± 1.26%
inhibition at 500 µg/mL [2]: 91.4 ± 0.2%
inhibition at 1000 µg/mL [2]: 94.6 ± 1.12%
IC50 [1]: 18.9 µM
DPPH percent inhibition ([1]; 62.5 μg/mL): 73.72±0.64%
DPPH percent inhibition ([1]; 125 μg/mL): 78.42±0.66%
DPPH percent inhibition ([1]; 250 μg/mL): 83.53±0.45%
DPPH percent inhibition ([1]; 500 μg/mL): 88.45±0.49%
DPPH percent inhibition ([1]; 1000 μg/mL): 91.63±0.55%

CC(C)(O)c1ccccc1CC[C@@H](SCC1(CC(=O)O)CC1)c1cccc(/C=C/c2ccc3ccc(Cl)cc3n2)c1 [Montelukast, reference compound]
IC50 [2]: 21.8 µM
inhibition at 62.5 µg/mL [2]: 71.8 ± 0.9%
inhibition at 125 µg/mL [2]: 76.4 ± 1.2%
inhibition at 250 µg/mL [2]: 81.6 ± 1.63%
inhibition at 500 µg/mL [2]: 87.5 ± 0.9%
inhibition at 1000 µg/mL [2]: 94.1 ± 1.04%
